In patent US20250042922A1, “KRAS MODULATING COMPOUNDS” (priority 2023, published 2025):

Assays:
GDP-loaded KRAS-G12D = GDP-loaded KRAS-G12D (Homo sapiens, UniProt P01116, G12D); experiment: KRAS (GDP) biochemical TR-FRET probe displacement assay, G12D; assay type: binding; conditions: 2 hours
Description: (§1) Compounds are tested for binding to GDP-loaded wild-type KRAS (WT), KRAS-G12C, KRAS-G12D, and KRAS-G12V in a 384-well assay format using a TR-FRET probe displacement assay in buffer consisting of 50 mM Hepes (pH 7.4), 150 mM NaCl, 5 mM MgCl2 and 0.005% Tween-20. […] Compounds are serially diluted (1:3) in DMSO. The LabCyte ECHO Acoustic dispenser was used to pre-spot the assay plates (384-well Non-Binding Surface plates, Corning, Catalog #3824) with 50 nL of compound. 5 μL of 2X enzyme concentration is added to the pre-spotted plates and incubated for 30 minutes before adding 5 μL of 2X concentration of Eu-streptavidin and Cy-5 labelled probe (10 μL final reaction volume). The plates are incubated at room temperature for 2 hours before measuring TR-FRET ratio (665 nm/615 nm) on the Envision multimode plate reader. The ratios are normalized to a positive (saturating concentration of known inhibitor) and negative (DMSO) control and plotted against the log of compound concentration.

GDP-loaded KRAS-G12V = GDP-loaded KRAS-G12V (Homo sapiens, UniProt P01116, G12V); experiment: KRAS (GDP) biochemical TR-FRET probe displacement assay, G12V; assay type: binding; conditions: 2 hours
Description: as §1

[1] = test system: cellular pERK in ASPC-1 (KRAS G12D) cells; experiment: Cell based pERK assay, ASPC-1; conditions: Homo sapiens, ASPC1; ASPC-1 (KRAS G12D), 2 hours incubation, HTRF phospho-ERK1/2; read-out: AsPC1 pERK EC50
How it was run: (§2)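 Cells seeded overnight (5000 AsPC-1 or 7500 others per well; RPMI/10% FBS, DMEM/10% FBS for MIA-PaCa-2), treated with 1:3 serial dilutions for 2 h at 37 °C. Phospho-ERK1/2 (Thr202/Tyr204) measured by HTRF (665/615 nm) after overnight lysis, normalized to DMSO and saturating known-inhibitor controls.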

[2] = test system: cellular pERK in NCI-H441 (KRAS-G12V) cells; experiment: Cell based pERK assay, NCI-H441; conditions: Homo sapiens; NCI-H441 (KRAS-G12V), 2 hours incubation, HTRF phospho-ERK1/2; read-out: H441 PERK EC50
How it was run: as §2

GDP-loaded KRAS-G12C = GDP-loaded KRAS-G12C (Homo sapiens, UniProt P01116, G12C); experiment: KRAS (GDP) biochemical TR-FRET probe displacement assay, G12C; assay type: binding; conditions: 2 hours
Description: as §1

[3] = test system: cellular pERK in MIA-PaCa-2 (KRAS-G12C) cells; experiment: Cell based pERK assay, MIA-PaCa-2; conditions: Homo sapiens; MIA-PaCa-2 (KRAS-G12C), 2 hours incubation, HTRF phospho-ERK1/2; read-out: MIAPaCa2 pERK EC50
How it was run: as §2

[4] = molecular target: GDP-loaded wild-type KRAS (WT) (Homo sapiens, UniProt P01116); experiment: KRAS (GDP) biochemical TR-FRET probe displacement assay, WT; assay type: binding; conditions: 2 hours
Description: as §1

[5] = test system: cellular pERK in Kuramochi (WT KRAS) cells; experiment: Cell based pERK assay, Kuramochi; conditions: Kuramochi (WT KRAS), 2 hours incubation, HTRF phospho-ERK1/2; read-out: Kuramochi pERK EC50
How it was run: as §2

GDP-loaded KRAS-G12C, sequence (P01116 1-188 isoform P01116-2 G12C): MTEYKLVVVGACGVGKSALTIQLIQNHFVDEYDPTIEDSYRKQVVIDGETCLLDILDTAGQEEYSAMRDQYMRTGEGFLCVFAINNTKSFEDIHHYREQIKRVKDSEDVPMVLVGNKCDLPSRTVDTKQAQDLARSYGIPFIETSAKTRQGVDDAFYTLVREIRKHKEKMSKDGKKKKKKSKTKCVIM
GDP-loaded KRAS-G12D, sequence (P01116 1-188 isoform P01116-2 G12D): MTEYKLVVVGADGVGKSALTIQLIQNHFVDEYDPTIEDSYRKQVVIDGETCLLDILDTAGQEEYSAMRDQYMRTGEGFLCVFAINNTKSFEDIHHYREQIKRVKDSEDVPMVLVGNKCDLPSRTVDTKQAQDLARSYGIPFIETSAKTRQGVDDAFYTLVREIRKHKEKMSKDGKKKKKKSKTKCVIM
GDP-loaded KRAS-G12V, sequence (P01116 1-188 isoform P01116-2 G12V): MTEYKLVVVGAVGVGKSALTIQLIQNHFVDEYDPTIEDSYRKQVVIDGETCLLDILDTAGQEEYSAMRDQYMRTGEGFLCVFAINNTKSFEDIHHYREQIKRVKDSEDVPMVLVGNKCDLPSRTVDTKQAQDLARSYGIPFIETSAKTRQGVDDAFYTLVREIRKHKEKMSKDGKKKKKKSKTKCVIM
GDP-loaded wild-type KRAS (WT), sequence (P01116 1-188 isoform P01116-2): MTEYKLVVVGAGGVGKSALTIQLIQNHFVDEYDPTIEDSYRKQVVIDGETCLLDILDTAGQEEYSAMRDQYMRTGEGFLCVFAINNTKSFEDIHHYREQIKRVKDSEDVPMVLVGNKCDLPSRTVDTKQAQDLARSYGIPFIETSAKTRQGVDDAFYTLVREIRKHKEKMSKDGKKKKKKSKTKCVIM

Row | SMILES | IC50 (GDP-loaded KRAS-G12D) [nM] | IC50 (GDP-loaded KRAS-G12V) [nM] | EC50 [1] [nM] | EC50 [2] [nM] | IC50 (GDP-loaded KRAS-G12C) [nM] | EC50 [3] [nM] | IC50 [4] [nM] | EC50 [5] [nM]
1 | Nc1cc(-c2nc3c4c(nc(OCC56CCCN5CCC6)nc4c2F)N2C[C@@]4(F)CC[C@](F)(N4)[C@H]2CCC3)c2c(OC(F)(F)F)c(F)ccc2c1 [Example 5-5, 6-fluoro-4-[(4S,7R,8R)-4,7,15-trifluoro-18-(1,2,3,5,6,7-hexahydropyrrolizin-8-ylmethoxy)-2,13,17,19,21-pentazapentacyclo[10.7.1.14,7.02,8.016,20]henicosa-1(19),12(20),13,15,17-pentaen-14-yl]-5-(trifluoromethoxy)naphthalen-2-amine] | ≥ 100 | 85 | 519 | 221 | 21.6 | 33.6 | 18.5 | 5.9
2 | C#Cc1c(F)ccc2cc(O)cc(-c3c(F)c4c5c(nc(OC[C@@]67CCCN6C[C@H](F)C7)nc5c3F)N3C[C@@]5(F)CC[C@H](N5)[C@H]3CC4)c12 [Example 4-41, 5-ethynyl-6-fluoro-4-((1S,4S,14aR)-4,10,12-trifluoro-8-(((2R,7aS)-2-fluorotetrahydro-1H-pyrrolizin-7a(5H)-yl)methoxy)-1,2,3,4,5,13,14,14a-octahydro-1,4-epiminoazepino[1′,2′:1,7]azepino[2,3,4-de]quinazolin-11-yl)naphthalen-2-ol] | 1.41 | 0.949 | 29.7 | 4.42 | 0.386 | 0.501 | 0.5 | 8.27
3 | C#Cc1c(F)ccc2cc(N)cc(-c3nc4c5c(nc(OC[C@@]67CCCN6[C@H](COC(C(F)(F)F)(C(F)(F)F)C(F)(F)F)CC7)nc5c3F)N3C[C@@]5(F)CC[C@](F)(N5)[C@@H]3[C@@H](C)C4)c12 [Example 4-36, 5-ethynyl-6-fluoro-4-((5S,5aS,6R,9S)-1,6,9-trifluoro-12-(((3S,7aS)-3-(((1,1,1,3,3,3-hexafluoro-2-(trifluoromethyl)propan-2-yl)oxy)methyl)tetrahydro-1H-pyrrolizin-7a(5H)-yl)methoxy)-5-methyl-4,5,5a,6,7,8,9,10-octahydro-3,10a,11,13,14-pentaaza-6,9-methanonaphtho[1,8-ab]heptalen-2-yl)naphthalen-2-amine] | > 100 | > 100 | > 1000 | > 1000 | > 100 | > 1000 | > 100 | 671
4 | Oc1cc(-c2nc3c4c(nc(OCC56CCCN5CCC6)nc4c2F)N2C[C@@]4(F)CC[C@](F)(N4)[C@H]2CCC3)c2c(OC(F)(F)F)c(F)ccc2c1 [Example 4-23, 6-fluoro-4-[(4S,7R,8R)-4,7,15-trifluoro-18-(1,2,3,5,6,7-hexahydropyrrolizin-8-ylmethoxy)-2,13,17,19,21-pentazapentacyclo[10.7.1.14,7.02,8.016,20]henicosa-1(19),12(20),13,15,17-pentaen-14-yl]-5-(trifluoromethoxy)naphthalen-2-ol] | 3.65 | 2.14 | 51.4 | 6.87 | 0.592 | 1.19 | 0.502 | 2.6
5 | Cc1c(F)c(N)cc(-c2nc3c4c(nc(OCC56CCCN5CCC6)nc4c2F)N2C[C@@]4(F)CC[C@](F)(N4)[C@@H]2[C@@H](C)C3)c1C(F)(F)F [Example 4-13, 2-fluoro-3-methyl-5-((5S,5aS,6R,9S)-1,6,9-trifluoro-5-methyl-12-((tetrahydro-1H-pyrrolizin-7a(5H)-yl)methoxy)-4,5,5a,6,7,8,9,10-octahydro-3,10a,11,13,14-pentaaza-6,9-methanonaphtho[1,8-ab]heptalen-2-yl)-4-(trifluoromethyl)aniline] | 20.2 | 8.04 | 109 | 18.3 | 3.81 | 5.66 | 0.411 | 2.77
